Drawing on BindingDB's records for doi:10.1021/jm011128+ (2002), this text covers IC50 for seven compounds.

The structures appear in SMILES notation.

For assay [1], the target named is Thymidine kinase 2, mitochondrial (Homo sapiens) (UniProt O00142). In words: Inhibitory effect against phosphorylation of [methyl-3H]dThd by Thymidine Kinase 2 (TK-2).
Assay [2] deals with Thymidine kinase (Human herpesvirus 1). Briefly: Inhibitory activity against HSV-1 Thymidine kinase in OST-TK-/HSV-1 TK+ cell line in combination with BVAraU.
The target is the same in assay [3]. In words: Inhibitory activity against HSV-1 Thymidine kinase in OST-TK-/HSV-1 TK+ cell line in combination with gancicclovir.
Assay [4] has the same target. Briefly: Compound was evaluated for inhibitory effect against phosphorylation of [methyl-3H]dThd by HSV-1 Thymidine kinase.

Chain of Thymidine kinase 2, mitochondrial (Homo sapiens) (O00142 whole entry, looked up): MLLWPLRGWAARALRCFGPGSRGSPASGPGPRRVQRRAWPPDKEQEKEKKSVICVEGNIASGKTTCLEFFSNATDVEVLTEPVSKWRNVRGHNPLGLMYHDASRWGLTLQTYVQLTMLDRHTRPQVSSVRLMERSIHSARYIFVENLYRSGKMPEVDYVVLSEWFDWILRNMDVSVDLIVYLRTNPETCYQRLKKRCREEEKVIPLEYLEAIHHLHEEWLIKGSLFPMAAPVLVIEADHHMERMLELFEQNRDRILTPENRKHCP

The IC50 is the concentration at which inhibition is half-maximal. With `Cc1cn(C/C=C\COCc2ccccc2)c(=O)[nH]c1=O` [1-(4-Benzyloxy-but-2-enyl)-5-methyl-1H-pyrimidine-2,4-dione], in assay [1], the IC50 came out at 22 µM. As for `Cc1cn(Cc2ccccc2COC(c2ccccc2)(c2ccccc2)c2ccccc2)c(=O)[nH]c1=O` [5-Methyl-1-(2-trityloxymethyl-benzyl)-1H-pyrimidine-2,4-dione], the IC50 came to 0.008 µM in assay [2] and 0.002 µM in assay [3]. Compound `COc1ccc(C(OCC2OC(n3cc(C)c(=O)[nH]c3=O)CC2O)(c2ccccc2)c2ccc(OC)cc2)cc1` (stereo not drawn) [1-{5-[Bis-(4-methoxy-phenyl)-phenyl-methoxymethyl]-4-hydroxy-tetrahydro-furan-2-yl}-5-methyl-1H-pyrimidine-2,4-dione] yielded an IC50 in assay [4] of 14 µM. With `Cc1cn(C/C=C\COC(=O)C(c2ccccc2)c2ccccc2)c(=O)[nH]c1=O` [Diphenyl-acetic acid 4-(5-methyl-2,4-dioxo-3,4-dihydro-2H-pyrimidin-1-yl)-but-2-enyl ester], the IC50 in assay [1] stood at 4.6 µM. For the compound `Cc1cn(C/C=C\COC(=O)c2ccccc2)c(=O)[nH]c1=O` [Benzoic acid 4-(5-methyl-2,4-dioxo-3,4-dihydro-2H-pyrimidin-1-yl)-but-2-enyl ester], the midpoint of inhibition in assay [1], the IC50, lay at 30 µM. `Cc1cn(C/C=C\COC(=O)C(C)(C)C)c(=O)[nH]c1=O` [2,2-Dimethyl-propionic acid 4-(5-methyl-2,4-dioxo-3,4-dihydro-2H-pyrimidin-1-yl)-but-2-enyl ester] displayed an IC50 in assay [1] of 40 µM. Consider `Cc1cn(CC#CCOC(c2ccccc2)(c2ccccc2)c2ccccc2)c(=O)[nH]c1=O` [5-Methyl-1-(4-trityloxy-but-2-ynyl)-1H-pyrimidine-2,4-dione], for which half-maximal inhibition in assay [4] (IC50) was put at 3.1 µM.
